Measurements as given in patent US5063242A (priority 1990, dated 1991).

Tested on: carrageenan footpad edema in rats
Settings: rat, in vivo, po, 5 mg/kg

## COc1ccc2c(c1)c(CC(=O)O)c(C)n2C(=O)c1ccc(Cl)cc1 [Indomethacin]
  % I: 48%
  Delta Edema (x ± SEM): 40 ± 2.5
